Measurements published in patent publication US20210253518A1, “KINASE INHIBITOR” (NISSAN CHEMICAL CORPORATION, priority 2018, published 2021).
Read-outs that look alike come from different tables or passages of the source.

What was measured:
Experiment in all cases: Off-chip Mobility Shift Assay (MSA method), kinase inhibition
Type in all cases: biochemical
CGK2 = target: T1, CGK2 (Homo sapiens, UniProt Q13237); settings: for inhibition at 0.1 µM: read-out: inhibition (%) CGK2
T1 sequence (Q13237 1-762): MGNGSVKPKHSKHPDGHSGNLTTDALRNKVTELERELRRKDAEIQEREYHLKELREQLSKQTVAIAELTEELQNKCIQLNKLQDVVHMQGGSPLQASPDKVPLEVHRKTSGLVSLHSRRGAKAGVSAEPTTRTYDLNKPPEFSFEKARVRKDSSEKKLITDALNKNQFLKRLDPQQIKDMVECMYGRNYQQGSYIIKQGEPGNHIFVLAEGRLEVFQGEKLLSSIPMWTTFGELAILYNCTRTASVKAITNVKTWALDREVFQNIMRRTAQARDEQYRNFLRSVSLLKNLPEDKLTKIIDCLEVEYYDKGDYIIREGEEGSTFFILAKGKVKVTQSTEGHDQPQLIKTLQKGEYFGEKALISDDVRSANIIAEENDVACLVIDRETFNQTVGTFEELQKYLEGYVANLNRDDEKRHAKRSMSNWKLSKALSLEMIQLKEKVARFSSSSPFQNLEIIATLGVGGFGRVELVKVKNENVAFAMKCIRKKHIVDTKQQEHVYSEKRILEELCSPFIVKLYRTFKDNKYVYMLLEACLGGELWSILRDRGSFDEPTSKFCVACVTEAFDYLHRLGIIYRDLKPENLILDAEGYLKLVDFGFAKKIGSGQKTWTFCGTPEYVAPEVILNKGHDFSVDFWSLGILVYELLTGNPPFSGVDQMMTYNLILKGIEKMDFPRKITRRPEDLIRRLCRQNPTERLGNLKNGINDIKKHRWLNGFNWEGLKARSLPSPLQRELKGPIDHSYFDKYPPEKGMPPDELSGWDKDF
Protocol: (§1) For compound k-1:B-1, inhibitory activity evaluation (calculation of 50% inhibitory concentration (IC50)) was performed on 8 kinds of kinases (CGK2, LATS2, MSK1, p70S6K, PKACα, PKACβ, SGK2, SGK3). The activity was measured using the Off-chip Mobility Shift Assay (MSA method) described below. The compound was added such that the test concentration of k-1:B-1 was in 10 steps from the final concentration of 10 μM to 0.3 nM.
(§2) As an analysis method of the data, the mean signal of the control well containing all reaction components was set to 0% inhibition, the mean signal without enzyme addition was set to 100% inhibition, and the inhibition rate was calculated from the mean signal of 2 wells of each test substance test. The IC50 value was obtained by approximating a plot based on the test substance concentration and inhibition rate to a 4 parameter logistics curve by using the Excel Solver add-in and by the non-linear least squares method.
(§3) 5 μL of k-1:B-1 solution at 4-fold concentration, 5 μL of substrate/ATP/metal solution at 4-fold concentration, and 10 μL of kinase solution at 2-fold concentration, each prepared with assay buffer (20 mM HEPES, 0.01% Triton X-100, 2 mM DTT, pH 7.5), were mixed in the wells of a polypropylene 384-well plate and reacted at room temperature for 1 or 5 hr. Successively, 70 μL of Termination Buffer (QuickScout Screening Assist MSA; Carna Biosciences) was added to discontinue the reaction. Then, the substrate peptide and the phosphorylated peptide in the reaction solution were separated and quantified by the LabChip system (Perkin Elmer). The kinase reaction was evaluated by the resultant product ratio (P/(P+S)) calculated from the substrate peptide peak height (S) and the phosphorylated peptide peak height (P).
(§4) For compounds k-1:H-7, k-1:H-1, k-1:D-1, k-1:J-1, and k-1:B-1, inhibitory rate at 100 nM was calculated on 8 kinds of kinases (CGK2, LATS2, MSK1, p70S6K, PKACα, PKACβ, SGK2, SGK3). The activity was measured using the MSA method. As an analysis method of the data, the mean signal of the control well containing all reaction components was set to 0% inhibition, the mean signal without enzyme addition was set to 100% inhibition, and the inhibition rate was calculated from the mean signal of 2 wells of each test substance test.
as §3, with “a compound” for “k-1:B-1”

MSK1 = MSK1 (Homo sapiens, UniProt O75582); settings: for inhibition at 0.1 µM: read-out: inhibition (%) MSK1
Protocol: as §1, §2, §3, §4
as §3, with “a compound” for “k-1:B-1”

PKACα = PKACα (Homo sapiens, UniProt P17612); settings: for inhibition at 0.1 µM: read-out: inhibition (%) PKACα
Protocol: as §1, §2, §3, §4
as §3, with “a compound” for “k-1:B-1”

PKACβ = PKACβ (Homo sapiens, UniProt P22694); settings: for inhibition at 0.1 µM: read-out: inhibition (%) PKACβ
Protocol: as §1, §2, §3, §4
as §3, with “a compound” for “k-1:B-1”

SGK3 = target: T2, SGK3 (Homo sapiens, UniProt Q96BR1); settings: for inhibition at 0.1 µM: read-out: inhibition (%) SGK3
T2 sequence (Q96BR1 1-496): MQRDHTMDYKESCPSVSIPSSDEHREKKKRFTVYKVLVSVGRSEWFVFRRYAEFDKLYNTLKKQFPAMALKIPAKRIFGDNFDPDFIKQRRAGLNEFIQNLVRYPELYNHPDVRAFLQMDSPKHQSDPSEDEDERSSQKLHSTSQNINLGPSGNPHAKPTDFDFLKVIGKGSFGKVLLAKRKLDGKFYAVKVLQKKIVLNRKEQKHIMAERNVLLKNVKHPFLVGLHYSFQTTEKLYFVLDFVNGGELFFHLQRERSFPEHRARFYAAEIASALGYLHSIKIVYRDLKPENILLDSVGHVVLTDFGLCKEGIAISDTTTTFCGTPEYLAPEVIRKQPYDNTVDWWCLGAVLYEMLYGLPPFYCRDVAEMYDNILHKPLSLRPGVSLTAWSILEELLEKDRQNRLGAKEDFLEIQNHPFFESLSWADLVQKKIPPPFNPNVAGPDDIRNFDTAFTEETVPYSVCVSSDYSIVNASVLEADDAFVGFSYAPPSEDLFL
Protocol: as §1, §2, §3, §4
as §3, with “a compound” for “k-1:B-1”

[1] = MSA method, 10 steps from 10 μM to 0.3 nM

MSK1, sequence (O75582 whole entry): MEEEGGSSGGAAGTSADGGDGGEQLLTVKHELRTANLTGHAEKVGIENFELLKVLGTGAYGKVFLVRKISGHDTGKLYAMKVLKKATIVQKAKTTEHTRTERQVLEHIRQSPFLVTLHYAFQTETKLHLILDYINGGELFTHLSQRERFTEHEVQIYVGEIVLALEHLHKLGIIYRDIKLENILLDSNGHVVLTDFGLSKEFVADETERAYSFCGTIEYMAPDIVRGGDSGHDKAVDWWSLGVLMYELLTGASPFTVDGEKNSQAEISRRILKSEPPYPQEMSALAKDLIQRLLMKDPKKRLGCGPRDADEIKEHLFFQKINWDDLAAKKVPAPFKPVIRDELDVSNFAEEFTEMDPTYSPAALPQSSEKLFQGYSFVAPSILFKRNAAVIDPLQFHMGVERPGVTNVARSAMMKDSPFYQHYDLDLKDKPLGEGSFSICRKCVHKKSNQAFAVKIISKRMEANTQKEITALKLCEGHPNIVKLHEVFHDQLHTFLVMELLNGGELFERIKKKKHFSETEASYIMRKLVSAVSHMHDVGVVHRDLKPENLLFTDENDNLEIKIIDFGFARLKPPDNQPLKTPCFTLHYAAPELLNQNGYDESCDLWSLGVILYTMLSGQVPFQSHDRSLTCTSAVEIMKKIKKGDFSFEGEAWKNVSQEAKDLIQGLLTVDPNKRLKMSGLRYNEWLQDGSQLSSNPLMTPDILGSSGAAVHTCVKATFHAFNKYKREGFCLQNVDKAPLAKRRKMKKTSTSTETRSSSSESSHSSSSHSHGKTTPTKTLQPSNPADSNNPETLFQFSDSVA

| SMILES | inhibition at 0.1 µM (CGK2) | inhibition at 0.1 µM (MSK1) | inhibition at 0.1 µM (PKACα) | inhibition at 0.1 µM (PKACβ) | inhibition at 0.1 µM (SGK3) | inhibition at 0.1 µM (CGK2; at 100 nM, MSA method) | inhibition at 0.1 µM (MSK1; at 100 nM, MSA method) | inhibition at 0.1 µM (PKACα; at 100 nM, MSA method) | inhibition at 0.1 µM (PKACβ; at 100 nM, MSA method) | inhibition at 0.1 µM (SGK3; at 100 nM, MSA method) | IC50 (CGK2; [1]) | IC50 (MSK1; [1]) | IC50 (PKACα; [1]) | IC50 (PKACβ; [1]) | IC50 (SGK3; [1]) |
| --- | --- | --- | --- | --- | --- | --- | --- | --- | --- | --- | --- | --- | --- | --- | --- |
| CC/C(=N\NC(=O)NCc1cccc(O)c1)c1ccc(O)c(C)c1O [k-1:J-1] | 51.3% | 99.6% | 94% | 89.7% | 82.5% | – | – | – | – | – | – | – | – | – | – |
| CCC(=NNC(=O)C(CC)Nc1ccccc1)c1ccc(O)c(C)c1O (stereo not drawn) [k-1:H-7] | – | – | – | – | – | 80.8% | 94.9% | 77.7% | 72% | 44.4% | – | – | – | – | – |
| CCC(=NNC(=O)CNc1ccccc1)c1ccc(O)c(C)c1O [k-1:H-1] | – | – | – | – | – | 77.6% | 99.7% | 92.1% | 87.7% | 73.7% | – | – | – | – | – |
| CC/C(=N\NC(=O)CNc1cccc(O)c1)c1ccc(O)c(C)c1O [k-1:D-1] | 97.2% | 101% | 99.7% | 98.5% | 93.6% | – | – | – | – | – | – | – | – | – | – |
| CC/C(=N\NC(=O)C(C)Nc1ccccc1)c1ccc(O)c(C)c1O (stereo not drawn) [k-1:B-1] | – | – | – | – | – | 83.2% | 87.7% | 82.8% | 80.1% | 65.9% | 0.0299 µM | 0.0174 µM | 0.0234 µM | 0.0293 µM | 0.0633 µM |
